Earlier results, collected in patent US9981058B2, “Balloon surface coating” (CARDIONOVUM Sp.z.o.o., priority 2011, dated 2018).
Where two headings read alike, the source gives them in different places.

Solubility (in dimethyl sulfoxide (DMSO), methanol and anhydrous ethanol): highly soluble
Solubility (in water): comparatively poorly soluble
Structure (SMILES): CC(=O)O[C@H]1C(=O)[C@@]2(C)[C@H]([C@H](OC(=O)c3ccccc3)[C@]3(O)C[C@H](OC(=O)[C@H](O)[C@@H](NC(=O)c4ccccc4)c4ccccc4)C(C)=C1C3(C)C)[C@]1(OC(C)=O)CO[C@@H]1C[C@@H]2O (relative stereo) [Paclitaxel, [2aR-[2a,4,4a,6,9(R*,S*),11, 12,12a,12b]]-(benzoylamino)-hydroxybenzene propionic acid 6,12b-bis-(acetyloxy)-12-(benzoyloxy)-2a-3,4,4a,5,6,9, 10, 11, 12, 12a,12b-dodecahydro-4, 11-dihydroxy-4a,8,13,13-tetramethyl-5-oxo-7,11-methano-1H-cyclodeca[3,4]benz[1,2-b]oxet-9-yl ester)]
